The values that follow come from PubChem BioAssay AID2387 (Broad Institute, 2010).

In the assay the test system is Candida albicans CaCi-2 growth (no fluconazole), Alamar Blue. Put plainly: C. albicans growth inhibition without fluconazole, dose response, counter-screen for fluconazole resistance reversal project, CaCi-2 strain, Alamar Blue fluorescence (AID 2387). As to conditions: C. albicans CaCi-2 (fluconazole-resistant clinical isolate) growth without fluconazole, 48 h. (Counterscreens check selectivity or assay interference.)

Molecules are shown by their SMILES. Several values for one entry are separate records, joined by “and”; a condition that tells them apart may be missing. Equal entries are not always repeated. Activity calls are given as the source filed them.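 Rule for the calls: active = fitted EC50 no more than tenfold above the highest tested concentration; inconclusive = flat fit with 30 to 70% signal loss, or poor fit; inactive = the rest.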

In general, EC50 refers to the concentration needed to bring the measured effect to its halfway point. Turning to `C[C@@H]1C[C@@H]2O[C@H]2/C=C\C=C\C(=O)Cc2c(Cl)c(O)cc(O)c2C(=O)O1`, the EC50 is > 16 µM (inactive).
For `CCc1ccc2c(c1)/C(=C/C(=O)c1cccs1)C(=O)N2`, the EC50 was > 15 µM (inactive).
For the molecule `CCCC(=O)NC(c1ccc(C(C)C)cc1)c1ccc2cccnc2c1O` (stereo not given), the EC50 was 11.1 µM.
For `Fc1cccc(-n2cc(-c3ccccc3)c3c(=S)nc[nH]c32)c1`, the EC50 was > 15 µM (inactive).
For `COc1ccc(C)cc1N=Nc1ccc(O)c2ncccc12`, the half-maximal effective concentration (EC50) is 2.77 µM.
As to `Oc1c(Br)cc(Br)cc1/C=N/Nc1ccc(Cl)nn1`, the EC50 is > 16 µM (inactive).
Take `CC(Nc1ncnc2ccccc12)c1ccccc1` (stereo not given): the EC50 was > 16 µM (inactive).
For the molecule `CCc1cc(=S)n2c([nH]c3ccccc32)c1C#N`, the EC50 is > 15 µM (inactive).
For `Nc1nonc1-n1nnc(C(=O)N/N=C/c2cc(Cl)ccc2O)c1CN1CCCCCC1`, the EC50 is > 15 µM (inactive).
As to `CCCCC(=O)NC(c1ccco1)c1cc(Cl)c2cccnc2c1O` (stereo not given), the concentration giving a half-maximal response (EC50) is 10.5 µM.
The same measure for `CC/C(=N/NC(=O)c1ccccc1O)c1c(C)[nH]n(-c2ccccc2)c1=O`: > 15 µM (inactive); for `O=c1ccc(N=Nc2ccccc2)ccc1O`: 3.88 µM.
For the molecule `CC(C)(C)c1ccc(Cc2n[nH]c(=S)[nH]c2=O)cc1`, the EC50 is > 16 µM (inactive).
In the case of `C/C(=N\NC(=O)c1cc(C2CC2)nc2ccccc12)c1ccc(O)cc1O`, the EC50 was > 16 µM (inactive).
On to `CCOc1ccccc1NC(=O)C(=O)N/N=C/c1cc(Br)ccc1O`, for which the EC50 was > 16 µM (inactive).
Regarding `N/C(Cc1ccc(Cl)c(Cl)c1)=N\OC(=O)c1cccs1`, the EC50 is > 16 µM (inactive).
Take `O=C(NNC1=C(C(=O)C(F)(F)F)CCC1)c1ccc(Br)cc1`: the EC50 is > 15 µM (inactive).
Take `CCCCC(=O)NC(c1ccc(Cl)cc1)c1ccc2cccnc2c1O` (stereo not given): the EC50 is 9.92 µM.
Regarding `CC(=O)c1sc(NC(=O)CCS(=O)(=O)c2ccccc2)nc1C`, the EC50 is > 15 µM (inactive).
For `O=C(Nc1nnc(-c2ccco2)o1)c1ccc(Cl)cc1`, the EC50 was > 15 µM (inactive).
On to `Cc1ccc2ccc3ccc(C)nc3c2n1`, for which the EC50 is > 15 µM (inactive).
As for `Cc1cc(Nc2ccccc2)nc(NCc2ccccc2)n1`, the EC50 was > 15 µM (inactive).
On to `COc1ccc(OC)c(C2C(C(=O)c3cc4ccccc4o3)=C(O)C(=O)N2c2cc(C)on2)c1` (stereo not given), for which the EC50 was > 15 µM (inactive).
Regarding `CCOC(=O)c1c(-c2ccccc2Cl)cn2ccccc12`, the EC50 is > 16 µM (inactive).
In the case of `O=C(Nc1nnc(-c2ccc(F)cc2)o1)c1cccc([N+](=O)[O-])c1`, the EC50 is > 15 µM (inactive).
On to `O=C(N/N=C/c1c(O)ccc2ccccc12)c1cccc(C(F)(F)F)c1`, for which the concentration for a half-maximal effect (EC50) is 1.42 µM.
The figure for `NC(=NCCCCCCN=C(N)/N=C(\N)Nc1ccc(Cl)cc1)/N=C(\N)Nc1ccc(Cl)cc1` is > 16 µM (inactive) and > 15 µM (inactive); for `CCc1cc(C(=O)NNC(=S)Nc2cc(C)ccc2C)cs1` it is > 15 µM (inactive); for `CCCC(=O)NC(c1ccc(C)cc1)c1ccc2cccnc2c1O` (stereo not given) it is > 15 µM (inactive).
Consider `CC(=O)O/N=C/c1c(N2CCOCC2)n(C)c2ccccc12`, for which the EC50 is > 16 µM (inactive).
With `O=[N+]([O-])c1ccc(O)c(/C=N/Nc2ccc(Cl)nn2)c1`, the EC50 was 9.85 µM.
`CCCn1nc([N+](=O)[O-])c(C(C#N)c2nc3ccccc3s2)c(Cl)c1=O` (stereo not given): the EC50 is > 16 µM (inactive).
Regarding `Cc1ccccc1C(=O)O/N=C/c1c(N2CCOCC2)n(C)c2ccccc12`, the EC50 was > 16 µM (inactive).
Consider `COc1ccc(C(=O)N2c3ccccc3C=CC2C#N)cc1` (stereo not given), for which the EC50 is > 15 µM (inactive).
In the case of `C[C@@H]1CC[C@@]2(NC1)O[C@H]1C[C@H]3[C@@H]4CC=C5C[C@@H](O)CC[C@]5(C)[C@H]4CC[C@]3(C)[C@H]1[C@@H]2C`, the EC50 is > 16 µM (inactive).
Consider `CN(C)c1cc(N/N=C/c2ccc(Cl)cc2)nc(N(C)C)n1`, for which the EC50 is > 16 µM (inactive).
On to `Cc1cc2ccccn2c1C(C[N+](=O)[O-])c1c(F)cccc1Cl` (stereo not given), for which the EC50 was 2.82 µM.
As to `N#Cc1cc(C#N)c(N2CCN(c3cccc(Cl)n3)CC2)nc1N`, the EC50 is > 15 µM (inactive).
The figure for `Cc1ccc(/C=C/C(=O)c2ccccc(=O)c2O)cc1C` is 13 µM; for `COc1ccc(-n2cc(-c3ccc(C)cc3)[n+]3c2SCC3)cc1` it is > 15 µM (inactive); for `Oc1c(C(Nc2nc3ccccc3s2)c2ccco2)ccc2cccnc12` (stereo not given) it is 4.68 µM.
The figure for `CC(=O)NC(c1cccs1)c1cc([N+](=O)[O-])c2cccnc2c1O` (stereo not given) is > 15 µM (inactive); for `O=C(Nc1nnc(CCc2ccccc2)s1)c1ccco1` it is > 15 µM (inactive).
On to `O=C(Nc1nnc(-c2ccco2)o1)c1cccc(Cl)c1`, for which the EC50 was > 15 µM (inactive).
The same measure for `O=C(NNC1=C(C(=O)C(F)(F)F)CCC1)c1cccc(Cl)c1`: > 16 µM (inactive).
The same measure for `Cc1nn(-c2ccccc2)c(Cl)c1/C=C/C(=O)c1ccc(O)cc1`: > 16 µM (inactive); for `CC[n+]1c(C=C2C=C(C)OC(C)=C2)sc2ccccc21`: > 16 µM (inactive).
In the case of `O=C(Nc1nnc(C2COc3ccccc3O2)o1)c1ccc(F)cc1` (stereo not given), the EC50 was > 15 µM (inactive).
Turning to `Cc1ccc(C(=O)c2coc3c2C(=O)C(=O)c2ccccc2-3)cc1`, the 50% effective concentration (EC50) is 10.7 µM.
Turning to `CCSc1nnc(-c2ccc(C)cc2)c2ccccc12`, the EC50 is > 15 µM (inactive).
Consider `CCN1CCN(C(c2cccnc2)c2cc(Cl)c3cccnc3c2O)CC1` (stereo not given), for which the concentration for a half-maximal effect (EC50) was 15.6 µM.
Turning to `CC1CCC(C(C)C)C(OC(=O)Cn2c(-c3ccc(Br)cc3)[n+](C)c3ccccc32)C1` (stereo not given), the EC50 was > 16 µM (inactive).
As for `O=C(Nc1cccc(-c2cn3ccccc3n2)c1)c1cccc(Cl)c1`, the EC50 is > 16 µM (inactive).
On to `Cc1nn(-c2ccccc2)c(C)c1C(=O)OC/C(O)=C(\C#N)c1nc2ccccc2[nH]1`, for which the EC50 is > 15 µM (inactive).
The same measure for `CCN1/C(=C/C(C)=C/c2sc3ccccc3[n+]2CC)Sc2ccccc21`: 2.38 µM; for `Cc1ccc2nc(N3C(=O)C(O)=C(C(=O)c4ccco4)C3c3ccc(C)o3)sc2c1` (stereo not given): > 15 µM (inactive); for `Cc1nnc(NC(=O)CSc2ncnc3c2cnn3-c2ccccc2C)s1`: > 15 µM (inactive).
Take `Nc1nonc1-n1nnc(C(=O)N/N=C/c2cc(Br)ccc2O)c1CNc1ccccc1`: the EC50 was > 16 µM (inactive).
For the molecule `Oc1c(C(Nc2nccs2)c2ccc(C(F)(F)F)cc2)ccc2cccnc12` (stereo not given), the EC50 is 4.35 µM.
Consider `CCCCCCc1c(C)nc(-n2[nH]c(C)c(CCO)c2=O)[nH]c1=O`, for which the EC50 is > 16 µM (inactive).
The figure for `C=CCNC(=S)Nc1sc2c(c1C(=O)OCC)CC(C)(CC)OC2` (stereo not given) is > 15 µM (inactive); for `CCOc1ccc(NC(=S)NNC(=O)c2ccc(Br)cc2)cc1` it is > 16 µM (inactive).
Regarding `COc1cccc(-c2nc(NC(C)C)c3ccccc3n2)c1O`, the EC50 was > 16 µM (inactive).
With `CCNC(=S)NNC(=O)c1cc(-c2cc(C)ccc2C)nc2ccccc12`, the EC50 is > 15 µM (inactive).
Consider `CCCC(=O)NC(c1ccc(OC)cc1)c1ccc2cccnc2c1O` (stereo not given), for which the EC50 was > 16 µM (inactive).
Consider `O=[N+]([O-])c1c(C(Cl)Cl)nn(-c2ccc(Cl)cc2)c1N1CCCCC1`, for which the EC50 is > 16 µM (inactive).
The same measure for `O=C(CNc1ccc2ccccc2c1)N/N=C/c1ccc([N+](=O)[O-])o1`: > 16 µM (inactive).
Regarding `COc1ccc(OC)c(/C=C2\SC(=S)N(NS(=O)(=O)c3ccc(C)cc3)C2=O)c1`, the EC50 was > 15 µM (inactive).
As for `CC(C)(C)c1ccc(OCCCC(=O)NNC(=O)c2ccccc2O)cc1`, the EC50 was > 16 µM (inactive).
As for `CC(CC(=O)Nc1ncc([N+](=O)[O-])s1)c1ccccc1` (stereo not given), the EC50 was > 16 µM (inactive).
For `CCn1c(O)c(N=NC(=O)c2cccs2)c2ccccc21`, the EC50 is > 15 µM (inactive).
Regarding `Cc1oc2ccc(OC(=O)N(C)C)cc2c1C(=O)OC(C)C`, the EC50 is > 16 µM (inactive).
For `O=Nc1c(-c2cccc([N+](=O)[O-])c2)nc2ncccn12`, the EC50 was 5.3 µM.
On to `CCCOc1ccc(C(=O)NNC(=S)NC(=O)CC)cc1`, for which the EC50 is > 15 µM (inactive).
Turning to `CC(C)CC(=O)NC(c1cccs1)c1ccc2cccnc2c1O` (stereo not given), the EC50 is 14.2 µM.
Turning to `COc1ccc(C(=O)NC(=S)NNC(=O)c2ccc(C)cc2)cc1`, the EC50 was > 15 µM (inactive).
With `O=C(Nc1nnc(-c2ccc3c(c2)CCCC3)o1)c1ccc(Cl)cc1Cl`, the EC50 is 14.5 µM.
On to `Cc1ccc(C)c(S(=O)(=O)N2CCN(Cc3ccc(O)c4ncccc34)CC2)c1`, for which the EC50 was > 16 µM (inactive).
In the case of `CC(=O)Nc1ccc(Nc2c3ccccc3nc3ccccc23)cc1`, the EC50 was > 15 µM (inactive).
As for `O=C1NC(=O)/C(=C\c2ccc(Br)o2)S1`, the EC50 was > 15 µM (inactive).
Consider `O=C(N/N=C/c1cc2c3c(c1O)CCCN3CCC2)c1ccccc1O`, for which the EC50 is 2.15 µM.
With `O=Cc1ccc(O)c2ncccc12`, the concentration for a half-maximal effect (EC50) was 6.24 µM.
With `CCc1ccccc1NC(=S)N=Nc1c(O)n(C)c2ccc(S(=O)(=O)N3CCOCC3)cc12`, the EC50 is > 15 µM (inactive).
With `O=c1[nH]c(=S)[nH]nc1Cc1ccc(Cl)c(Cl)c1`, the EC50 is > 16 µM (inactive).
The same measure for `COc1ccc(/C=C/c2cc(-c3ccc(C)cc3)o[n+]2C)cc1`: > 16 µM (inactive); for `CCCCOc1cccc(C2C(C(=O)c3ccc(C)o3)=C(O)C(=O)N2Cc2ccco2)c1` (stereo not given): > 15 µM (inactive).
The figure for `O=C(Nc1nc(-c2ccccn2)cs1)c1ccc(Br)s1` is 10.2 µM; for `O=C(NCc1ccc(F)cc1)C(c1ccccc1)N(CC1CCCO1)C(=O)Cn1nnc2ccccc21` (stereo not given) it is > 15 µM (inactive).
For `COc1ccc(C2C(C#N)=C(N)Oc3c2ccc2cccnc32)cc1OC` (stereo not given), the EC50 was > 15 µM (inactive).
`COc1ccc(C(=O)NNC(=S)NC(=O)c2ccc(Cl)cc2)cc1`: the EC50 is > 16 µM (inactive).
